# Data: publication PMC12029179, “6-Chlorocoumarin Conjugates with Nucleobases and Nucleosides as Potent Anti-Hepatitis C Virus Agents” (Molecules, 2025)
# pEC50, pIC50: −log10 of the molar value. Read-outs that look alike come from different tables or passages of the source. Numbered stars: 1 amine (or outer) side, 2 acyl side, 3 side chain; on linkers, the order of the positions; unused ones are H or OH. Bridge positions count the residues as written; N and C are the ends. Square brackets hold non-standard residues; d marks the D form. Peptide text beside a SMILES is read from it. I, II: the chains in the order shown. Actinocin(9to1) = Cc1c2oc3c(C)ccc(C(=O)[*:1])c3nc-2c(C(=O)[*:2])c(N)c1=O; NMeV = CN[C@H](C(=O)O)C(C)C; Sar = CNCC(=O)O
# Tests used:
# Detroit 551 cells = experiment: Cell viability (MTS) assay in Detroit 551 cells; assay type: cell-based; details: for pIC50: Homo sapiens, read-out: IC50 (cell survival rate of 50%)
# Protocol: Detroit 551 cells, a human fibroblast cell line, are routinely employed to assess both acute and chronic toxicity in normal human cells. Evaluating the cytotoxicity of compounds in Detroit 551 cells helps to identify potential safety concerns early in drug development. The three promising leads, 7a, 7b, and 18, were tested in a Detroit 551 assay using the antineoplastic and antibiotic agent actinomycin D as a positive control.
# Detroit 551 cells were harvested and seeded into a 96-well plate, then incubated at 37 °C for 24 h. A serial dilution of the test compound was prepared in eight three-fold concentrations (20,000 nM, 6667 nM, 2222 nM, 741 nM, 247 nM, 82 nM, 27 nM, and 9 nM), and 10 µL of each dilution was added to the corresponding wells. The plate was then returned to 37 °C for an additional 72 h of incubation. After this incubation, a 3-(4,5-dimethylthiazol-2-yl)-5-(3-carboxymethoxyphenyl)-2-(4-sulfophenyl)-2H-tetrazolium (MTS) assay medium (mixed in a 2:0.1 ratio of MTS–phenazine methyl sulfate (PMS)) was prepared. The plate was moved to a biological safety cabinet, and 21 µL of the MTS medium was added to each well. The plate was then incubated at 37 °C for 90 min before absorbance was measured at 490 nm on a Victor 2 plate reader (PerkinElmer, Inc., Waltham, MA, USA). Data were subsequently analyzed to assess cytotoxicity.
# [1] = Host-cell metabolic activity (MTS assay) in Huh 5-2 cells; assay type: cell-based; details: human
# From the text: (§1) An evaluation of the antiviral effects of the conjugated compounds was initially performed in Huh 5-2 cells utilizing the HCV genotype 1b subgenomic replicon system, based on previously reported procedures. By analyzing the dose–response curves, we calculated the concentration of each compound that inhibited the viral replication by 50% (EC50) and the concentration that reduced the host-cell metabolic activity by 50% (CC50). These values were then used to compute the selectivity index (SI = CC50/EC50), which serves as an indicator of a compound’s therapeutic window. Even if an EC50 was determined from the dose–response curve in the antiviral assay, the compounds that were evaluated may not qualify as promising hits. […] It is likely that the antiviral activity observed in the other compounds is due to their nonspecific or pleiotropic effects on the host cell.
# [2] = tested on: HCV genotype 1b subgenomic replicon; experiment: Anti-HCV assay in Huh 5-2 cells (luciferase replicon readout); assay type: cell-based, hepatitis C virus (HCV); details: for pEC50: Huh-5-2, Huh 5-2 cells, luminescence
# From the text: as §1
# Huh 5-2 cells were plated in white, tissue culture-treated 96-well view plates (Packard, Canberra, Canada) at a density of 5 × 10^3 cells per well, using complete Dulbecco’s Modified Eagle Medium (DMEM) containing 250 µg/mL G418. Following 24 h incubation at 37 °C with 5% CO2, the medium was discarded and serial 3-fold dilutions of the test compounds—prepared in complete DMEM lacking G418—were added to reach a final volume of 100 µL per well. After an additional 4-day incubation period under the same conditions, the medium was removed, and luciferase activity was assessed using the Steady-Glo luciferase assay kit (Promega, Leiden, The Netherlands). Luminescence was measured with a Luminoskan Ascent reader (Thermo, Vantaa, Finland). The EC50 value was determined as the compound concentration resulting in a 50% decrease in luciferase signal.
# HCV subgenomic replicon = experiment: Anti-HCV assay in Huh 9-13 cells (real-time quantitative RT-PCR of replicon RNA); assay type: cell-based, hepatitis C virus (HCV); details: for % replicon RNA: normalized against no-drug control
# Protocol: Furthermore, the antiviral activity of three of the hits (i.e., 7a, 7b, and 18) was validated by evaluation of the dose–response effect of treatment with the compounds at the level of viral RNA replication in the Huh 9-13 assay system. The real-time quantitative RT-PCR readout was used.
# Huh 9-13 cells were seeded at 5 × 10^3 cells per well into 96-well plates containing complete DMEM supplemented with 1000 µg/mL G418. […] After 4 days of incubation, the culture medium was removed, and the cell monolayers were washed once with phosphate-buffered saline (PBS). Cells were then lysed using 350 µL of RLT buffer (Qiagen, Venlo, The Netherlands) as per the manufacturer’s protocol, and the lysates were stored at −80 °C for future analysis. Upon completion of sample collection, RNA was extracted, and the samples were analyzed through quantitative real-time PCR to measure their HCV replicon content. The real-time RT-PCR data for all samples were calibrated against the “no-drug control”.
# * After collection of all samples, RNA was extracted and samples were analyzed by quantitative real-
# time PCR for their HCV replicon content. Real-time RT-PCR values of all assayed samples were
# normalized against the “no-drug control”.
# [3] = Host-cell metabolic activity in Huh 9-13 cells; assay type: cell-based; details: human
# Huh 9-13 cells = experiment: Host-cell metabolic activity in Huh 9-13 cells; assay type: cell-based
# [4] = primary screening, tested starting at 50 μg/mL
# [5] = Hepatitis C virus, primary screening, tested starting at 50 μg/mL
# [6] = Huh 5-2 cells, primary screening starting at 50 μg/mL
# [7] = secondary screen starting at 125 μg/mL
# [8] = Hepatitis C virus, secondary screen starting at 125 μg/mL, average of triplicate
# [9] = Huh 5-2 cells, secondary screen starting at 125 μg/mL
smiles,measurement,setting,value
"Cc1c2oc3c(C)ccc(C(=O)N[C@@H]4C(=O)N[C@H](C(C)C)C(=O)N5CCC[C@H]5C(=O)N(C)CC(=O)N(C)[C@@H](C(C)C)C(=O)O[C@@H]4C)c3nc-2c(C(=O)N[C@@H]2C(=O)N[C@H](C(C)C)C(=O)N3CCC[C@H]3C(=O)N(C)CC(=O)N(C)[C@@H](C(C)C)C(=O)O[C@@H]2C)c(N)c1=O [Actinomycin D, actinomycin D, reference compound] (I: T[dV]P[Sar][NMeV] / II: T[dV]P[Sar][NMeV]; ester I:1-I:C, II:1-II:C; linker I:N-II:N via Actinocin(9to1))",pIC50,"Detroit 551 cells; Detroit 551, 72 h",4.81
"Nc1ncnc2[nH]c(SCc3cc4cc(Cl)ccc4oc3=O)nc12 [Compound 3a, 8-[(6′-Chlorocoumarin-3′-yl)methylthio]adenine]",CC50,[1]; [4],69 µM
same,pEC50,[2]; [5],5.00
same,SI (CC50/EC50),[2]; [6],6.7
"Nc1ncnc2c1nc(SCc1cc3cc(Cl)ccc3oc1=O)n2[C@@H]1O[C@H](CO)[C@@H](O)[C@H]1O [Compound 3b, 8-[(6′-Chlorocoumarin-3′-yl)methylthio]adenosine]",CC50,[1]; [4],48 µM
same,pEC50,[2]; [5],4.49
same,SI (CC50/EC50),[2]; [6],1.5
"Nc1nc2c(nc(SCc3cc4cc(Cl)ccc4oc3=O)n2[C@@H]2O[C@H](CO)[C@@H](O)[C@H]2O)c(=O)[nH]1 [Compound 5a, 8-[(6′-Chlorocoumarin-3′-yl)methylthio]guanosine]",CC50,[1]; [4],> 98 µM
same,pEC50,[2]; [5],< 4.01
"Nc1nc2[nH]c(SCc3cc4cc(Cl)ccc4oc3=O)nc2c(=O)[nH]1 [Compound 5b, 8-[(6’-Chlorocoumarin-3’-yl)methylthio]guanine]",CC50,[1]; [4],> 133 µM
same,pEC50,[2]; [5],4.29
same,SI (CC50/EC50),[2]; [6],>2.6
"O=c1oc2ccc(Cl)cc2cc1CSc1ncnc2[nH]cnc12 [Compound 7a, 6-[(6′-Chlorocoumarin-3′-yl)methylthio]purine]",CC50,[1]; [4],> 145 µM
same,CC50,[1]; [7],> 363 µM
same,SI (CC50/EC50),HCV subgenomic replicon,>20
same,"Quantity (HCV replicon RNA, real-time PCR)",HCV subgenomic replicon; 0.023 µg/ml,1.12E-04
same,% replicon RNA,HCV subgenomic replicon; 0.023 µg/ml,93%
same,"Quantity (HCV replicon RNA, real-time PCR)",HCV subgenomic replicon; 0.069 µg/ml,1.44E-04
same,% replicon RNA,HCV subgenomic replicon; 0.069 µg/ml,119%
same,"Quantity (HCV replicon RNA, real-time PCR)",HCV subgenomic replicon; 0.206 µg/ml,1.36E-04
same,% replicon RNA,HCV subgenomic replicon; 0.206 µg/ml,112%
same,"Quantity (HCV replicon RNA, real-time PCR)",HCV subgenomic replicon; 0.617 µg/ml,8.96E-05
same,% replicon RNA,HCV subgenomic replicon; 0.617 µg/ml,74%
same,"Quantity (HCV replicon RNA, real-time PCR)",HCV subgenomic replicon; 5.56 µg/ml,2.70E-05
same,% replicon RNA,HCV subgenomic replicon; 5.56 µg/ml,22%
same,"Quantity (HCV replicon RNA, real-time PCR)",HCV subgenomic replicon; 16.67 µg/ml,1.20E-05
same,% replicon RNA,HCV subgenomic replicon; 16.67 µg/ml,10%
same,"Quantity (HCV replicon RNA, real-time PCR)",HCV subgenomic replicon; 50 µg/ml,4.54E-06
same,% replicon RNA,HCV subgenomic replicon; 50 µg/ml,4%
same,"Quantity (HCV replicon RNA, real-time PCR)",HCV subgenomic replicon; 1.852 (7b: 1.85) µg/ml,7.41E-05
same,% replicon RNA,HCV subgenomic replicon; 1.852 (7b: 1.85) µg/ml,61%
same,pEC50,"HCV subgenomic replicon; Hepatitis C virus, real-time quantitative RT-PCR readout",5.14
same,EC50,"HCV subgenomic replicon; Hepatitis C virus, supplement dose-response data",2.5 µg/mL
same,cell death at highest tested concentration,"Detroit 551 cells; Detroit 551 cells, 20 μM",none of the three compounds induced cell death
same,pIC50,"Detroit 551 cells; Detroit 551 cells, 72 h incubation, tested starting at 20.0 μM",< 4.70
same,CC50,[3]; compound 18 tested starting at 125 µg/mL,> 145 µM
same,CC50,[3]; supplement dose-response data,> 50 µg/mL
same,% cell metabolism,Huh 9-13 cells; 0.023 µg/ml,109%
same,% cell metabolism,Huh 9-13 cells; 0.069 µg/ml,104%
same,% cell metabolism,Huh 9-13 cells; 0.206 µg/ml,109%
same,% cell metabolism,Huh 9-13 cells; 0.617 µg/ml,105%
same,% cell metabolism,Huh 9-13 cells; 5.56 µg/ml,112%
same,% cell metabolism,Huh 9-13 cells; 16.67 µg/ml,115%
same,% cell metabolism,Huh 9-13 cells; 50 µg/ml,92%
same,% cell metabolism,Huh 9-13 cells; 1.852 (7b: 1.85) µg/ml,109%
same,pEC50,[2]; [5],5.07
same,pEC50,[2]; [8],5.32
same,SI (CC50/EC50),[2]; [6],>17
same,SI (CC50/EC50),[2]; [9],>76
"Nc1nc(SCc2cc3cc(Cl)ccc3oc2=O)c2nc[nH]c2n1 [Compound 9a, 2-Amino-6-[(6′-chlorocoumarin-3′-yl)methylthio]purine]",CC50,[1]; [4],> 139 µM
same,CC50,[1]; [7],> 347 µM
same,pEC50,[2]; [5],4.19
same,pEC50,[2]; [8],4.32
same,SI (CC50/EC50),[2]; [6],>2.1
same,SI (CC50/EC50),[2]; [9],>7.3
"Nc1nc(SCc2cc3cc(Cl)ccc3oc2=O)c2ncn([C@@H]3O[C@H](CO)[C@@H](O)[C@H]3O)c2n1 [Compound 9b, 2-Amino-6-(6′-chlorocoumarin-3′-yl)methylthio-9-(β-D-ribofuranos-1″-yl)purine]",CC50,[1]; [4],> 102 µM
same,pEC50,[2]; [5],4.82
same,SI (CC50/EC50),[2]; [6],>6.9
"O=c1nc(SCc2cc3cc(Cl)ccc3oc2=O)cc[nH]1 [Compound 11a, 4-[(6′-Chlorocoumarin-3′-yl)methylthio]uracil]",CC50,[1]; [4],> 156 µM
same,pEC50,[2]; [5],4.74
same,SI (CC50/EC50),[2]; [6],>8.6
"Cc1c[nH]c(=O)nc1SCc1cc2cc(Cl)ccc2oc1=O [Compound 11b, 4-(6′-Chlorocoumarin-3′-yl)methylthio-5-methyluracil]",CC50,[1]; [4],> 149 µM
same,pEC50,[2]; [5],4.80
same,SI (CC50/EC50),[2]; [6],>9.1
"O=c1oc2ccc(Cl)cc2cc1CSc1ccn([C@@H]2O[C@H](CO)[C@@H](O)[C@H]2O)c(=O)n1 [Compound 16a, 4-[(6′-Chlorocoumarin-3′-yl)methylthio]uridine]",CC50,[1]; [4],> 108 µM
same,pEC50,[2]; [5],4.80
same,SI (CC50/EC50),[2]; [6],>6.8
"Cc1cn([C@H]2C[C@H](O)[C@@H](CO)O2)c(=O)nc1SCc1cc2cc(Cl)ccc2oc1=O [Compound 16b, 4-[(6′-Chlorocoumarin-3′-yl)methylthio]thymidine]",CC50,[1]; [4],> 111 µM
same,pEC50,[2]; [5],4.23
same,SI (CC50/EC50),[2]; [6],>1.9
"Nc1ccnc(SCc2cc3cc(Cl)ccc3oc2=O)n1 [Compound 20, 4-Amino-2-[(6′-chlorocoumarin-3′-yl)methylthio]pyrimidine]",CC50,[1]; [4],> 156 µM
same,CC50,[1]; [7],> 391 µM
same,pEC50,[2]; [5],4.28
same,pEC50,[2]; [8],4.68
same,inhibition at 50 µg/mL,"[2]; Hepatitis C virus, Huh 5-2 cells, at 50 μg/mL",69.8%
same,inhibition at 125 µg/mL,"[2]; Hepatitis C virus, Huh 5-2 cells, at 125 μg/mL",< 80%
same,SI (CC50/EC50),[2]; [6],>2.9
same,SI (CC50/EC50),[2]; [9],>19
